Experimental data from patent US20260224547A1, “COMPOSITIONS COMPRISING ANATABINE AND USES THEREOF” (Philip Morris Products S.A., priority 2021, published 2026).

How the values were obtained:
NRF2 = NRF2 luciferase assay (NRF2/ARE reporter cell line); type: cell-based, human
Description: A HEK-293 NRF2/ARE luciferase reporter cell line was acquired from Signosis (USA). According to Signosis, this NRF2 luciferase reporter stable cell line had been stably transfected with pTA-ARE-luciferase reporter vector, which contains 4 repeats of antioxidant response binding sites, a minimal promoter upstream of the firefly luciferase coding region, along with a hygromycin expression vector. Following selection, the hygromycin resistant clones were subsequently screened for TBHQ-induced luciferase activity. The clone with the highest fold induction was selected and expanded to produce this stable cell line.
4, 8 or 24 hours after stimulation of the NRF2 reporter cells luminescence was measured using a FLUOstar Omega plate reader.

[1] = test system: PMA-differentiated THP-1 cell lysates; assay: DIA mass spectrometry proteomics of cell lysates; type: cell-based, human; conditions: 100, 200, 300, 400 μM for 24 hours; adjusted p-value<0.05
Description: To confirm the increased expression of target genes of NRF2 transcription factor at the protein level, proteins were profiled by untargeted mass spectrometry in PMA-differentiated THP-1 cell lysates after anatabine treatment (100, 200, 300, 400 μM) for 24 hours.
Samples were processed using PREOMICS IST KIT (PreOmics GmbH, Planegg/Martinsried, Germany) as described in the manufacturer's protocol. Briefly, 100 μl of PREOMICS LYSE BUFFER were added to the cells, samples were incubated at 90° C. for 10 min and sonified for 30 sec with a sonifier (Brandson, Danbury, Connecticut, USA) at 10% amplitude. Protein amount was determined using the PIERCE 660 NM PROTEIN ASSAY (Pierce Biotechnology, Rockford, USA) following the manufacturer's protocol. Samples were normalized to 0.5 μg/μl and 40 μg was further processed with PREOMICS IST KIT with a 3 h trypsin digestion. Peptides were purified on the cartridge, dried overnight on a vacuum concentrator (Martin Christ, Germany) and re-suspended in 50 μL of LC SOLUTION (Biognosys AG, Switzerland). 1 μL of iRT reference peptides (Biognosys AG, Switzerland) was added to 19 μL of processed sample. Samples were analysed with an EASY 1000 NANOLC (ThermoFisher Scientific) connected online to a Q-Exactive (ThermoFisher Scientific). […]

NRF2 reporter cells = assay: Cell viability measured with ATP assay alongside NRF2 translocation (FIG. 4 to 7)
Description: FIGS. 5A to 5C: bar and line graphs showing NRF2 translocation presented as log 2 fold change compared to vehicle control (bars) and cell viability measured with ATP assay and presented as a percentage of the vehicle control (line) for anatabine (FIG. 5A), dimethyl fumarate (AlfaAesar) (FIG. 5B), and nornicotine (FIG. 5C).
FIGS. 6A to 6C: bar graphs showing NRF2 translocation presented as log 2 fold change compared to vehicle control (bars) and cell viability measured with ATP assay and presented as a percentage of the vehicle control (line) for anatabine (FIG. 6A), dimethyl fumarate (Sigma) (FIG. 6B), and sulforaphane (FIG. 6C).
FIGS. 7A and […]: bar graphs showing NRF2 translocation presented as log 2 fold change compared to vehicle control (bars) and cell viability measured with ATP assay and presented as a percentage of the vehicle control (line) for cotinine (FIG. 7A) and nicotine (FIG. 7B).

## C1=CCC(c2cccnc2)NC1 (racemic) [anatabine, 1,2,3,6-Tetrahydro-2,3′-bipyridine]
NRF2; at 12.5 μM for sulforaphane, 125 μM and 250 μM for DMF, 1000 μM for anatabine
  maximum log 2-fold change of NRF2 activation: over 7
NRF2; concentration series
  NRF2 luciferase reporter signal: concentration-dependent rise
[1]
  intracellular protein products of NRF2 target genes HMOX1, GCLM, NQO1 and TXNRD1: significantly expressed
NRF2 reporter cells; 250 μM
  cell viability, percentage of the vehicle control: above 85%
NRF2 reporter cells; 500 μM
  cell viability, percentage of the vehicle control: above 85%
NRF2 reporter cells; higher concentrations of the tested range
  cell viability at higher concentrations: high cell viability
